Assays:
AMPA receptors = experiment: AMPA evoked single neuron spike activity in rat hippocampus (iontophoretic application of AMPA), in vivo; conditions: for AMPA evoked spike activity: rat hippocampus
Excerpt: Evaluation of the in vivo effects of positive AMPA modulators (PAMs) on the AMPA evoked spike activity in rat hippocampus. Hippocampal single neuron spike activity is strongly influenced by excitatory input, and iontophoretic application of AMPA induces spike activity in vivo in a dose-dependent manner ([…] et al. 1998). […] PAMs potentate AMPA receptor activation in vitro, and if this mechanism also operates in vivo, the i.v. injection of an PAM should enhance AMPA evoked spike activity. Thus, the aim of this study was to test the in vivo effect of a group of in vitro active PAMs. This have been done by studying their ability to enhances AMPA evoked spike activity after i.v. administration. Experiments were performed on male Wistar rats (M & B, Denmark) weighing 280-380 g, housed in two per cage with free access to food and water. […] Additional anaesthetic was given i.v. if the rat responded to a pinch of the back foot. The trachea was cannulated and the rats were placed in a stereotaxic frame and ventilated by a rodent ventilator (Ugo Basile, Comerio-Varese, Italy). Core body temperature was maintained at 37.5° C. by a DC heating pad. The left and dorsal part of the parietal bone was removed by craniotomy and the dura was withdrawn exposing the pia mater and underlying brain, covered with 0.9% NaCl. AMPA (Sigma, USA) was dissolved at 10 mM in 0.2 M NaCl. NMDA (Sigma, USA) was dissolved at 100 mM in 100 mM NaCl. Both solutions were adjusted to pH 7.5-8.0 with NaOH. COMPOUND 61 was dissolved in 200 mM CH3SO3^- Na^+ at a contration of 10 mM for iontophoretic application ([…]) and in isotonic glucose (278 mM) for i.v. administration. Cyclothiazide, COMPOUND 63, COMPOUND 56, COMPOUND 115 and COMPOUND 114 were all dissolved at in 5% chremophore solution at a concentration of 5 mg ml^-1. Evoked neuronal spike activity was analyzed on-line by a computer, saving single spikes and time of event. Neuronal spike activity (number of action potentials s^-1) was monitored on a pulse rate histogram together with indicators for AMPA, COMPOUND 61 and vehicle application. Extracellular recordings of single hippocampal neuron spikes were made with five-barrel glass microelectrodes (5B120F-6, World Precision Instruments Inc., Sarasota, Fla., USA) with a tip diameter of 10-12 μm. The individual barrels were filled with 5 M NaCl (recording), 400 mM NaCl (current balancing), 10 mM COMPOUND 61 in 200 mM CH3SO3^- Na^+ (pH 4.7), 200 mM CH3SO3^- Na^+ (pH 4.7, Vehicle), and the last barrel was filled with the AMPA. Experiments were performed on hippocampal neurons (A=5.5-6.5 mm, L=1.5-2.0 mm, H=2.0-3.0 mm, according to Paxinos & Watson, 1986). Neuronal spike activity was evoked by iontophoretic application of AMPA for periods of 10 to 15 s with 1.5 min intervals. Single neuron spike activity was amplified 5000 times with a bandwidth of 0.3 and 3 kHz (CyberAmp 320 with a Al 402 x50 smartprobe, Axon Instruments, California, USA). On-line and off-line analyses were performed by the Spike2 program with a 1401 plus interface (Cambridge Electronic Design Limited, England). The computer program also recorded mean arterial blood pressure and monitored and controlled iontophoretic application. AMPA was ejected into hippocampus in regular cycles of 100-105 s. […] Recording of neuronal spike activity was continued for at least 45 min after intravenous injection. The PAM reactivity was tested by microiontophoretic application of COMPOUND 61 (20 nA, FIG.).

[1] = system: AMPA induced [3H]GABA release from cultured cortical neurons; experiment: Potentiation of AMPA induced [3H]GABA release from cultured cortical neurons; format: cell-based, mouse; conditions: 5 μM AMPA; expressed relative to potentiation induced by 30 μM cyclothiazide; FIGS. 1 and 2
Description: Neurons which express receptors for excitatory amino acids can be depolarized by such compounds and this depolariztion will ultimately lead to a release of transmitter substance from the neurons. Cultured neurons obtained from 16-day-old mouse embryo cortex are mainly GABAergic and express all types of excitatory amino acid receptors. This means that they can be stimulated by high potassium (55 mM) or by the excitatory amino acids NMDA (20 μM), AMPA (5 μM) and kainate (5 μM) to release their neurotransmitter GABA.
^3H-GABA may be used to label the GABA transmitter pool in the neurons and the release of ^3H-GABA from the neurons may be used as a simple functional model for studies of the effects of excitatory amino acid receptor agonists, antagonists, and modulators.
Cerebral cortices of 15–16 day-old NMRI mouse embryos are chopped in 0.4×0.4 mm cubes and the tissue is dissociated by mild trypsinization (0.1% (wt/vol) trypsin, 37° C., 10 min). Subsequently the cell suspension (3 mill/ml) is inoculated into poly-L-lysine-coated 30 mm Petri dishes (3 ml/dish) containing a slightly modified DMEM (24.5 mM KCl) supplemented with p-aminobenzoate (7 μM), insulin (100 mU/L) and 10% (vol/vol) horse serum. Cells are maintained in culture for 5–7 days with the addition of the antimitotic agent cytosine arbinoside (5 μM) from day 2 in vitro to prevent glial proliferation. […]

SMILES: CN1CCN(S(=O)(=O)c2ccc3c(c2)S(=O)(=O)NC(C2CCCCC2)N3)CC1 (stereo not shown) [Compound 61, 3-Cyclohexyl-7-(4′-methylpiperazino)sulfonyl-1,2,3,4-tetrahydro-1,2,4-benzothiadiazine-1,1-dioxide]
- onset of the enhancement after i.v. administration (AMPA receptors; 10 mg kg^−1 i.v.): 20 min
- AMPA evoked spike activity (AMPA receptors; 10 mg kg^−1 i.v.): enhanced
- increase in AMPA evoked spike activity (AMPA receptors; 10 mg kg^−1 i.v., FIG. 14): 3 fold
- AMPA evoked spike activity (AMPA receptors; iontophoretic application of the compound (20 nA)): enhanced

SMILES: O=S1(=O)NC(C2CCCCC2)Nc2ccc(S(=O)(=O)N3CCOCC3)cc21 (stereo not shown) [Compound 63, 3-Cyclohexyl-7-morpholinosulfonyl-1,2,3,4-tetrahydro-1,2,4-benzothiadiazine-1,1-dioxide]
- initial effect on the AMPA responses (AMPA receptors; 10 mg kg^−1 i.v., before onset of enhancement): initial inhibition
- large AMPA responses, evoked by high intensity AMPA stimulation (AMPA receptors; 10 mg kg^−1 i.v., high intensity AMPA (17 nA)): only marginal effect
- small AMPA responses, evoked by low intensity AMPA stimulation (AMPA receptors; 10 mg kg^−1 i.v., low intensity AMPA (12 nA)): enhanced

SMILES: Cc1cc2c(cc1S(=O)(=O)N1CCCCC1)S(=O)(=O)NC(C1CCCC1)N2 (stereo not shown) [Compound 114, 3-Cyclopentyl-6-methyl-7-piperidinosulfonyl-1,2,3,4-tetrahydro-1,2,4-benzothia-diazine-1,1-dioxide]
- potentiation of AMPA induced [3H]GABA release [1]: potentiation
- AMPA evoked spike activity (AMPA receptors; 10 mg kg^−1 i.v.): enhanced
- increase of the AMPA responses (AMPA receptors; 10 mg kg^−1 i.v., control level of the AMPA responses low, FIG. 15): 10 fold
- AMPA response after administration (AMPA receptors; 10 mg kg^−1 i.v., larger control responses, from 124, FIG. 16): 204 spikes response^−1
- enhancement of the AMPA responses (AMPA receptors; 10 mg kg^−1 i.v., larger control responses, FIG. 16): approximately doubled
- AMPA response after administration, mean response (AMPA receptors; 10 mg kg^−1 i.v., low control level, from 21, FIG. 15): 209 spikes response^−1

SMILES: Cc1cc2c(cc1S(=O)(=O)N1CCOCC1)S(=O)(=O)NC(C1CCCCC1)N2 (stereo not shown) [Compound 115, 3-Cyclohexyl-6-methyl-7-morpholinosulfonyl-1,2,3,4-tetrahydro-1,2,4-benzothiadiazine-1,1-dioxide]
- potentiation of AMPA induced [3H]GABA release [1]: potentiation
- onset of the enhancement after i.v. administration (AMPA receptors; 10 mg kg^−1 i.v.): 2 min
- AMPA evoked spike activity (AMPA receptors; 10 mg kg^−1 i.v.): enhancement

Reference: patent US7235548B2, “Compounds and their use as positive AMPA receptor modulators” (NeuroSearch A/S, priority 1998, dated 2007)
